Laboratory results taken from patent US6087383A (Bristol-Myers Squibb Company, priority 1998, dated 2000).
Where a name gives a salt, the structure may show the parent alone. Read-outs that look alike come from different tables or passages of the source.

Columns and labels:
[1] = 40° C./75% RH; for changes in thermal behavior: as little as two weeks
Protocol: The term physical stability indicates the ability of the salt form to retain its crystal structure (including solvents of crystallization, if any) under storage/stress conditions. Significant changes in the physical nature of the salt form as indicated by thermal methods such as differential scanning calorimetry are undesirable. […] The solid line represents the unstressed material. The dotted line represents the material stressed at 40° C./75% RH for 9 months. […] The solid line represents the unstressed material. The dotted line represents the material stressed at 40° C./75% RH for two weeks. […] The solid line represents the unstressed material. […] The solid line represents the unstressed material. The dotted line represents the material stressed at 40° C./75% RH for two weeks.

[2] = Equilibration of excess salt in water: suspension pH and identity of undissolved solid phase; assay type: physicochemical; settings: for pH of the suspension after equilibration / identity of undissolved solid phase after equilibration in water: excess salt in water; for pH of the suspension after equilibration: at least 24 hours (24±3° C. for methane sulfonate and hydrochloride); for identity of undissolved solid phase after equilibration in water: thermal and/or elemental analysis
Source text: (§1) In general, conversion of salts to the unionized form or vice versa can be explained on the basis of pH-solubility theory. […] At pH<pHmax the equilibrium solid converts to the corresponding salt form. The term "equilibrium solid phase" refers to the undissolved or excess solid in a suspension of the compound in water after sufficient equilibration time. When a salt of a weak base is equilibrated in water in an amount exceeding its solubility limit (i.e., a suspension of the salt in water), the resulting pH of the suspension may fall on either side of the pHmax depending on the strength of the acid among other factors. When the resulting pH is greater than the pHmax, the suspended solid converts to the free base.
The undissolved solids from these suspensions were isolated, air-dried, and characterized.

[3] = Aqueous solubility at 24±3° C.; settings: water
Source text: For development of pharmaceutical formulations, particularly oral dosage forms, the active ingredient must have sufficient oral bioavailability.

in vivo = settings: dog, po
[4] = pH 1.8
[5] = Source text: as §1
[6] = Oral bioavailability in animals; assay type: in vivo; settings: crystalline free base form as a suspension in water or oil
[7] = dog, in vivo
[8] = Crystal form characterisation (hygroscopicity); assay type: physicochemical; settings: crystals obtained from isopropanol
Source text: They are now referred to as Type-II crystals. The Type-I crystals appear to be an anhydrous/desolvated crystalline material while the Type-II crystals are a hydrated, hygroscopic crystalline form.

| Structure (SMILES) | changes in thermal behavior [1] | pH of the suspension after equilibration [2] | identity of undissolved solid phase after equilibration in water [2] | solubility in water [4] | further results |
| --- | --- | --- | --- | --- | --- |
| COC(=O)N[C@H](C(=O)N[C@@H](Cc1ccccc1)[C@@H](O)CN(Cc1ccc(-c2ccccn2)cc1)NC(=O)[C@@H](NC(=O)OC)C(C)(C)C)C(C)(C)C [methanesulfonate] | significant changes in their thermal behavior | 2.1±0.1 | identified as the free base | – | – |
| COC(=O)N[C@H](C(=O)N[C@@H](Cc1ccccc1)[C@@H](O)CN(Cc1ccc(-c2ccccn2)cc1)NC(=O)[C@@H](NC(=O)OC)C(C)(C)C)C(C)(C)C [benzenesulfonate] | – | – | – | – | solubility [3]: 1000 to 3000 µg/mL |
| COC(=O)N[C@H](C(=O)N[C@@H](Cc1ccccc1)[C@@H](O)CN(Cc1ccc(-c2ccccn2)cc1)NC(=O)[C@@H](NC(=O)OC)C(C)(C)C)C(C)(C)C [hydrochloride] | significant changes in their thermal behavior | 2.1±0.1 | identified as the free base | – | – |
| COC(=O)N[C@H](C(=O)N[C@@H](Cc1ccccc1)[C@@H](O)CN(Cc1ccc(-c2ccccn2)cc1)NC(=O)[C@@H](NC(=O)OC)C(C)(C)C)C(C)(C)C [bisulfate salt] | – | 1.9±0.2 | hydrated form of 2:1 salt of the free base form and sulfuric acid | 4000 to 5000 µg/mL | bioavailability (in vivo): ~20%; changes in thermal behavior (differential scanning calorimetry) ([1]; 9 months, vs unstressed sample (2-8° C. closed container)): no significant changes in the thermal behavior; solid state transformation when suspended in water ([2]; suspension in water): prevents the conversion to the free base |
| COC(=O)N[C@H](C(=O)N[C@@H](Cc1ccccc1)[C@@H](O)CN(Cc1ccc(-c2ccccn2)cc1)NC(=O)[C@@H](NC(=O)OC)C(C)(C)C)C(C)(C)C [Compound I, [3S-(3R*, 8'R*, 9'R*, 12R*)]-3,12-bis(1,1-dimethylethyl)-8-hydroxy-4,11-dioxo-9-(phenylmethyl)-6-[[4-(2-pyridinyl)phenylmethyl]-2,5,6,10,13-pentaazatetradecanedioic] acid, dimethyl ester] | – | – | – | less than 1 mg/mL | pHmax (pH at which the compound exhibits the highest solubility) [5]: approximately 1.2; oral bioavailability [6]: poor oral bioavailability; oral bioavailability [7]: minimal oral bioavailability |
| COC(=O)N[C@H](C(=O)N[C@@H](Cc1ccccc1)[C@@H](O)CN(Cc1ccc(-c2ccccn2)cc1)NC(=O)[C@@H](NC(=O)OC)C(C)(C)C)C(C)(C)C [Type-II crystals] | – | – | – | – | hygroscopicity [8]: hygroscopic |
